Converted amounts (≈) assume the structure as drawn. Where a SMILES comes first, the peptide text is derived from it. Bridges are numbered along the chain shown (N, C = ends). Roman numbers before positions name the chains, in order. [ ]: non-standard residue; d: D form. Thr(ol) = C[C@@H](O)[C@H](N)CO; Tle = CC(C)(C)[C@H](N)C(=O)O; Hiv = CC(C)[C@H](O)C(=O)O; dDab = NCC[C@@H](N)C(=O)O; hSer = N[C@@H](CCO)C(=O)O; Orn = NCCC[C@H](N)C(=O)O; Dab = NCC[C@H](N)C(=O)O; Dap = NC[C@H](N)C(=O)O

This note sets out measurements from patent US11629171B2, “Beta-hairpin peptidomimetics” (POLYPHOR AG, priority 2017, dated 2023).

Holding throughout (assay type): cell-based
Data set [1] deals with human red blood cells (hRBC). Nature of the data set: Hemolysis. As to conditions: red cells of human, 1 h, 200. The protocol: The peptides were tested for their hemolytic activity against human red blood cells (hRBC). Fresh hRBC were washed four times with phosphate buffered saline (PBS) and centrifuged for 10 min at 3000×g. Compounds (200 μg/mL) were incubated with 20% hRBC (v/v) for 1 h at 37° C. and shaking at 300 rpm. A value of 0% and 100% cell lysis, respectively, was determined by incubation of hRBC in the presence of PBS containing 10% water and 2% Triton X-100 in H2O, respectively. The samples were centrifuged, the supernatants were ˜7.5-fold diluted in PBS buffer and the optical densities (OD) were measured at 540 nm and blank corrected. The 100% lysis value (OD540Triton X-100) gave an OD540 of approximately 0.5-1.0.
Percent hemolysis was calculated as follows: (OD540peptide/OD540Triton X-100)×100%.

The next data set deals with Escherichia coli 926415. As to conditions: 926415. The protocol: (§1) The in vitro antimicrobial activities of the peptides were determined in 96-well plates (Greiner, polystyrene) by the standard CLSI broth microdilution method (Clinical and Laboratory Standards Institute 2014. Performance standards for antimicrobial susceptibility testing, 24th informational supplement. Approved standard CLSI M100-S24; Clinical and Laboratory Standards Institute, Wayne, Pa.). The following microorganisms were used to determine antibiotic activity of the peptides: Escherichia coli ATCC 25922, Klebsiella pneumoniae SSI #3010^a), Acinetobacter baumannii DSM 30008, Pseudomonas aeruginosa ATCC 27853 and the clinical isolates Escherichia coli 926415^b), Klebsiella pneumoniae 968733^b), Acinetobacter baumannii 872842^b), Enterobacter cloacae 848840^b) and Escherichia coli MCR-1 Af45^c). Before preparation of inocula, Escherichia coli MCR-1 Af45 was subcultured on Mueller-Hinton II (MH-cation adjusted) agar containing 2 μg/mL colistin. ^a) Obtained from Statens Serum Institut (SSI), Copenhagen, Denmark^b) Obtained from International Health Management Associates, Inc. (IHMA Europe Sàrl), Epalinges, Switzerland^c) Obtained from Prof. Patrice Nordmann, University of Fribourg, Fribourg, Switzerland
(§2) Inocula of the microorganisms were diluted into Mueller-Hinton II (MH-cation adjusted) broth and compared with a 0.5 McFarland standard to give appr. 10^6 colony forming units (CFU)/mL. Aliquots (90 μL) of inoculum were added to 10 μL of MH-II broth+P-80 (Polysorbate 80, 0.002% final concentration, v/v) containing the peptide in serial two-fold dilutions. Antimicrobial activities of the peptides were expressed as the minimal inhibitory concentration (MIC) in μg/mL at which no visible growth was observed after 18-20 hours of incubation at 35° C.

In data set [2] the test system is Acinetobacter baumannii 872842. The note with it: 872842. The protocol: as §1, §2
In data set [3] the test system is Pseudomonas aeruginosa ATCC 27853. As to conditions: ATCC 27853. The protocol: as §1, §2
Data set [4] deals with Klebsiella pneumoniae SSI #3010. As to conditions: SSI #3010. The protocol: as §1, §2
Data set [5] deals with Klebsiella pneumoniae 968733. As to conditions: 968733. The method, then: as §1, §2
The subject of data set [6] is Escherichia coli ATCC 25922. As to conditions: ATCC 25922. The method, then: as §1, §2
For data set [7], the system named is Acinetobacter baumannii DSM 30008. The note with it: DSM 30008. The method, then:
as §1, §2

Data set [8] concerns Enterobacter cloacae 848840. As to conditions: 848840. The protocol:
as §1, §2

Consider `CC(C)C[C@@H]1NC(=O)[C@@H](CC(C)C)NC(=O)[C@H](CCN)NC(=O)[C@@H](NC(=O)[C@H](CCN)NC(=O)[C@@H](NC(=O)[C@H](CCN)NC(=O)CC[C@@H]2NC(=O)[C@H](CCN)NC(=O)[C@H](Cc3ccc(O)cc3)NC(=O)[C@@H](NC(=O)[C@@H](N)C(C)C)CC(=O)NCC[C@@H](C(=O)N[C@@H](CO)C(=O)O)NC(=O)[C@H](C(C)(C)C)NC(=O)[C@H](CO)NC(=O)[C@H](Cc3c[nH]c4ccccc34)NC(=O)[C@H]([C@@H](C)O)NC(=O)[C@@H](CCN)NC2=O)[C@@H](C)O)CCNC(=O)[C@H]([C@@H](C)O)NC(=O)[C@H](CCN)NC(=O)[C@H](CCN)NC1=O` [Ex. 55] (I: H-VDY[Dab]E[dDab]TWS[Tle][Dab]S-OH / II: [Dab]T[Dab][Dab][Dab][dL]L[Dab][Dab]T; lactam I:2-I:11, II:4-II:C; amide I:5-II:N), for which the “Hemolysis at 200 μg/mL” value in [1] turned out to be 2%. Moreover, the MIC was 1 µg/mL (≈ 0.418 µM) against Escherichia coli 926415; 1 µg/mL (≈ 0.418 µM) in [2]; 0.25 µg/mL (≈ 0.104 µM) in [3]; 0.5 µg/mL (≈ 0.209 µM) in data set [4]; 8 µg/mL (≈ 3.34 µM) in data set [5]; 0.25 µg/mL (≈ 0.104 µM) in data set [6]. Moreover, the figures for the minimum inhibitory concentration (MIC) in [7] and in data set [8] were 0.5 µg/mL (≈ 0.209 µM) and 8 µg/mL (≈ 3.34 µM), respectively.

In the case of `CC(C)C[C@@H]1NC(=O)[C@@H](CC(C)C)NC(=O)[C@H](CCN)NC(=O)[C@@H](NC(=O)[C@H](CCN)NC(=O)[C@@H](NC(=O)[C@H](CCN)NC(=O)CC[C@@H]2NC(=O)[C@H](CCN)NC(=O)[C@H](Cc3ccc(O)cc3)NC(=O)[C@@H](NC(=O)[C@@H](O)C(C)C)CSSC[C@@H](C(=O)N[C@H](CO)[C@@H](C)O)NC(=O)[C@H](C(C)(C)C)NC(=O)[C@H](CCO)NC(=O)[C@H](Cc3c[nH]c4ccccc34)NC(=O)[C@H](CO)NC(=O)[C@@H](CCN)NC2=O)[C@@H](C)O)CCNC(=O)[C@H]([C@@H](C)O)NC(=O)[C@H](CCN)NC(=O)[C@H](CCN)NC1=O` [Ex. 83] (I: H-[Hiv]CY[Dab]E[dDab]SW[hSer][Tle]C[Thr(ol)] / II: [Dab]T[Dab][Dab][Dab][dL]L[Dab][Dab]T; disulfide I:2-I:11; amide I:5-II:N; lactam II:4-II:C), the “Hemolysis at 200 μg/mL” value in data set [1] was under 1%. For the same molecule, the MIC against Escherichia coli 926415 was 0.25 µg/mL (≈ 0.104 µM); in data set [2], 0.125 µg/mL (≈ 0.0521 µM); in data set [3], 0.125 µg/mL (≈ 0.0521 µM); in data set [4], 0.0625 µg/mL (≈ 0.026 µM); in [5] it was 0.25 µg/mL (≈ 0.104 µM); in [6] it was 0.0625 µg/mL (≈ 0.026 µM). The figures for the MIC in data set [7] and in [8] were 0.0625 µg/mL (≈ 0.026 µM) and 0.125 µg/mL (≈ 0.0521 µM), respectively.

As to `CC(=O)N[C@H](C(=O)N[C@H]1CSSC[C@@H](C(=O)N[C@H](C(N)=O)C(C)C)NC(=O)[C@H](Cc2ccc(O)cc2)NC(=O)[C@H](CO)NC(=O)[C@H](Cc2c[nH]c3ccccc23)NC(=O)[C@H](CCO)NC(=O)[C@@H](CCN)NC(=O)[C@H](CCC(=O)N[C@@H](CCN)C(=O)N[C@H](C(=O)N[C@@H](CCN)C(=O)N[C@H]2CCNC(=O)[C@H]([C@@H](C)O)NC(=O)[C@H](CCN)NC(=O)[C@H](CCN)NC(=O)[C@H](CC(C)C)NC(=O)[C@@H](CC(C)C)NC(=O)[C@H](CCN)NC2=O)[C@@H](C)O)NC(=O)[C@H](CCN)NC(=O)[C@H](CO)NC1=O)C(C)C` [Ex. 68] (I: Ac-VCS[Dab]E[dDab][hSer]WSYCV-NH2 / II: [Dab]T[Dab][Dab][Dab][dL]L[Dab][Dab]T; disulfide I:2-I:11; amide I:5-II:N; lactam II:4-II:C), the “Hemolysis at 200 μg/mL” value in data set [1] was under 1%. The MIC in the data set with Escherichia coli 926415 is 2 µg/mL (≈ 0.824 µM); in data set [2], 8 µg/mL (≈ 3.3 µM); in [3] it was 0.5 µg/mL (≈ 0.206 µM); in [4] it was 0.125 µg/mL (≈ 0.0515 µM); in [5] it was 1 µg/mL (≈ 0.412 µM); in data set [6], 0.25 µg/mL (≈ 0.103 µM). Also, the MIC in data set [7] came out at 0.25 µg/mL (≈ 0.103 µM).

On to `CC(C)C[C@@H]1NC(=O)[C@@H](CC(C)C)NC(=O)[C@H](CCN)NC(=O)[C@@H](NC(=O)[C@H](CN)NC(=O)[C@@H](NC(=O)[C@H](CCN)NC(=O)CC[C@H]2NC(=O)[C@@H](CCN)NC(=O)[C@H](CCCN)NC(=O)[C@H](CCN)NC(=O)[C@H](Cc3ccc(O)cc3)NC(=O)[C@@H](NC(=O)[C@@H](O)C(C)C)CSSC[C@@H](C(=O)N[C@H](C(N)=O)[C@@H](C)O)NC(=O)[C@H](C(C)(C)C)NC(=O)[C@H](CO)NC(=O)[C@H](Cc3c[nH]c4ccccc34)NC2=O)[C@@H](C)O)CCNC(=O)[C@H]([C@@H](C)O)NC(=O)[C@H](CCN)NC(=O)[C@H](CCN)NC1=O` [Ex. 169] (I: H-[Hiv]CY[Dab][Orn][dDab][dE]WS[Tle]CT-NH2 / II: [Dab]T[Dap][Dab][Dab][dL]L[Dab][Dab]T; disulfide I:2-I:11; amide I:7-II:N; lactam II:4-II:C), for which the “Hemolysis at 200 μg/mL” value in [1] is under 1%. Besides, the MIC came to 0.5 µg/mL (≈ 0.207 µM) in the data set with Escherichia coli 926415; 1 µg/mL (≈ 0.414 µM) in data set [2]; 0.25 µg/mL (≈ 0.104 µM) in data set [3]; 0.5 µg/mL (≈ 0.207 µM) in data set [4]; 4 µg/mL (≈ 1.66 µM) in data set [5]; 0.25 µg/mL (≈ 0.104 µM) in data set [6]. In data set [7], this molecule registered an MIC of 0.25 µg/mL (≈ 0.104 µM).

As for `CC(C)C[C@@H]1NC(=O)[C@@H](CC(C)C)NC(=O)[C@H](CCN)NC(=O)[C@@H](NC(=O)[C@H](CN)NC(=O)[C@@H](NC(=O)[C@H](CCN)NC(=O)CC[C@H]2NC(=O)CNC(=O)[C@H](CCCN)NC(=O)[C@H](CCN)NC(=O)[C@H](Cc3ccc(O)cc3)NC(=O)[C@@H](NC(=O)[C@@H](O)C(C)C)CSSC[C@@H](C(=O)N[C@H](C(N)=O)[C@@H](C)O)NC(=O)[C@H](C(C)(C)C)NC(=O)[C@H](CO)NC(=O)[C@H](Cc3c[nH]c4ccccc34)NC2=O)[C@@H](C)O)CCNC(=O)[C@H]([C@@H](C)O)NC(=O)[C@H](CCN)NC(=O)[C@H](CCN)NC1=O` [Ex. 170] (I: H-[Hiv]CY[Dab][Orn]G[dE]WS[Tle]CT-NH2 / II: [Dab]T[Dap][Dab][Dab][dL]L[Dab][Dab]T; disulfide I:2-I:11; amide I:7-II:N; lactam II:4-II:C), the “Hemolysis at 200 μg/mL” value in data set [1] is under 1%. Further, the MIC came out at 0.5 µg/mL (≈ 0.211 µM) in the data set on Escherichia coli 926415; 2 µg/mL (≈ 0.844 µM) in data set [2]; 0.5 µg/mL (≈ 0.211 µM) in data set [3]; 0.5 µg/mL (≈ 0.211 µM) in [4]; 2 µg/mL (≈ 0.844 µM) in data set [5]; 0.125 µg/mL (≈ 0.0527 µM) in data set [6]. In data set [7], the MIC worked out at 0.25 µg/mL (≈ 0.105 µM).

With `CC(C)C[C@@H]1NC(=O)[C@H](CCN)NC(=O)[C@H](CCN)NC(=O)[C@H](CC(C)C)NC(=O)[C@@H](CC(C)C)NC(=O)[C@H](CCN)NC(=O)[C@@H](NC(=O)[C@@H](CCN)NC(=O)CC[C@@H]2NC(=O)[C@H](CCCN)NC(=O)[C@H](CCN)NC(=O)[C@H](Cc3ccc(O)cc3)NC(=O)[C@@H](NC(=O)[C@@H](O)C(C)C)CSSC[C@@H](C(=O)N[C@H](C(N)=O)[C@@H](C)O)NC(=O)[C@H](C(C)(C)C)NC(=O)[C@H](CO)NC(=O)[C@H](Cc3c[nH]c4ccccc34)NC(=O)[C@H]([C@@H](C)O)NC2=O)CCNC1=O` [Ex. 164] (I: H-[Hiv]CY[Dab][Orn]ETWS[Tle]CT-NH2 / II: [dDab][Dab][Dab][dL]L[Dab][Dab]L; disulfide I:2-I:11; amide I:6-II:N; lactam II:2-II:C), the “Hemolysis at 200 μg/mL” value in data set [1] is listed as under 1%. The MIC against Escherichia coli 926415 was 0.25 µg/mL (≈ 0.112 µM); in [2], 2 µg/mL (≈ 0.893 µM); in data set [3] it was 1 µg/mL (≈ 0.447 µM); in data set [4] it was 0.5 µg/mL (≈ 0.223 µM); in data set [5] it was 1 µg/mL (≈ 0.447 µM); in data set [6] it was 0.5 µg/mL (≈ 0.223 µM). In data set [7], this molecule registered an MIC of 0.5 µg/mL (≈ 0.223 µM).

Usually MIC stands for the lowest concentration that inhibits growth of the organism. Read a low MIC as greater potency.
